Experimental data taken from the kinase profiling compilation of Christmann-Franck et al. (2016).

Experiments:
Experiment in all cases: radiometric filter-binding kinase assay
EPHB4 (human) = EPHB4 (human) (UniProt P54760)
IKBKB (human) = IKBKB (human) (UniProt O14920)
YES1 (human) = YES1 (human) (UniProt P07947); conditions: compound 1.0 µM
STK3 (human) = STK3 (human) (UniProt Q13188)
MYLK (human) = MYLK (human) (UniProt Q15746)
MAP2K1 (human) = MAP2K1 (human) (UniProt Q02750); conditions: compound 1.0 µM
MKNK2 (human) = MKNK2 (human) (UniProt Q9HBH9)
PAK6 (human) = PAK6 (human) (UniProt Q9NQU5)
EPHB1 (human) = EPHB1 (human) (UniProt P54762)
MAP3K9 (human) = MAP3K9 (human) (UniProt P80192)
PIM1 (human) = PIM1 (human) (UniProt P11309)
CSNK2A1 (human) = CSNK2A1 (human) (UniProt P68400)
[1] = system: RPS6KB1 (human), P23443 [T412E]
NEK6 (human) = NEK6 (human) (UniProt Q9HC98)
PIM3 (human) = PIM3 (human) (UniProt Q86V86)
EEF2K (human) = EEF2K (human) (UniProt O00418)
GCK (human) = GCK (human) (UniProt Q12851)
SRPK1 (human) = SRPK1 (human) (UniProt Q96SB4)
INSRR (human) = INSRR (human) (UniProt P14616)
DAPK1 (human) = DAPK1 (human) (UniProt P53355)
MAP2K2 (human) = MAP2K2 (human) (UniProt P36507)
TTK (human) = TTK (human) (UniProt P33981)
BTK (human) = BTK (human) (UniProt Q06187)
PIM2 (human) = PIM2 (human) (UniProt Q9P1W9)
[2] = system: PAK2 (human), Q13177 [T402E]
RPS6KA5 KD1 KD2 (human) = RPS6KA5 KD1 KD2 (human) (UniProt O75582)
CDK2 CCNA2 (human) = CDK2 CCNA2 (human) (UniProt P20248+P24941)
MARK4 (human) = MARK4 (human) (UniProt Q96L34)
CHEK1 (human) = CHEK1 (human) (UniProt O14757)
EPHA4 (human) = EPHA4 (human) (UniProt P54764); conditions: compound 10.0 µM
MAPK9 (human) = MAPK9 (human) (UniProt P45984)
TBK1 (human) = TBK1 (human) (UniProt Q9UHD2); conditions: compound 1.0 µM
MARK3 (human) = MARK3 (human) (UniProt P27448)
MAP3K5 (human) = MAP3K5 (human) (UniProt Q99683); conditions: compound 10.0 µM
MAPKAPK2 (human) = MAPKAPK2 (human) (UniProt P49137); conditions: compound 10.0 µM
PKN2 (human) = PKN2 (human) (UniProt Q16513); conditions: compound 1.0 µM

CSNK2A1 (human), sequence (P68400 whole entry, looked up): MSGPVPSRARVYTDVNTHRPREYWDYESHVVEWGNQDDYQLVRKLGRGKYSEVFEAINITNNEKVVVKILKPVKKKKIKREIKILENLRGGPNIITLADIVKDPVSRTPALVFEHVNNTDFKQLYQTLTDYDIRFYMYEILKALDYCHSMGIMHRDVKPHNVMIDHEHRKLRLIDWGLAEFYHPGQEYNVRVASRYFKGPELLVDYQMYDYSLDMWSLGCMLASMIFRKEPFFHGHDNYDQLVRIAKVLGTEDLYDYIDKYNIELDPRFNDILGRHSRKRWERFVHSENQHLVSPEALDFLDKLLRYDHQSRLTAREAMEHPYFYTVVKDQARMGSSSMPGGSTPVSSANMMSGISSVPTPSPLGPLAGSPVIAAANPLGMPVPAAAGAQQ
EEF2K (human), sequence (O00418 whole entry, looked up): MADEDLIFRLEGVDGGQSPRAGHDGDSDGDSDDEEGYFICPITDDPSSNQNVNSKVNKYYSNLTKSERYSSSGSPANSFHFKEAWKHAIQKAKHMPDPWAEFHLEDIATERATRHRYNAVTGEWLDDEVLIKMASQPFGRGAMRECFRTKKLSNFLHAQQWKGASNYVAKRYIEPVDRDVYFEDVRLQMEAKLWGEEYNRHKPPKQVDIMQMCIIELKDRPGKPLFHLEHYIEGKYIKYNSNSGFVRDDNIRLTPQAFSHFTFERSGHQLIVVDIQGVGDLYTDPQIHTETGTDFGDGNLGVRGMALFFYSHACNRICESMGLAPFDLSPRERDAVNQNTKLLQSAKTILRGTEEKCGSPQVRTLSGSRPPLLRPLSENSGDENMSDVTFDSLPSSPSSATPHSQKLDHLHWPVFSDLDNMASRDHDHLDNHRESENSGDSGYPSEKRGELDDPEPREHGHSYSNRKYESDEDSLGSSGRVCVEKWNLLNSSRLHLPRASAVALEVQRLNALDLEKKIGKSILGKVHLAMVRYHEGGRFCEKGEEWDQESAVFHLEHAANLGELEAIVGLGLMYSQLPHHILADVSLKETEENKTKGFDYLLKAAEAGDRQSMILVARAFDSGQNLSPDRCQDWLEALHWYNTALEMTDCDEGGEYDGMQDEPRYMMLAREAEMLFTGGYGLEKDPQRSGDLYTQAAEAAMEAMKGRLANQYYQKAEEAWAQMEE
MYLK (human), sequence (Q15746 whole entry, looked up): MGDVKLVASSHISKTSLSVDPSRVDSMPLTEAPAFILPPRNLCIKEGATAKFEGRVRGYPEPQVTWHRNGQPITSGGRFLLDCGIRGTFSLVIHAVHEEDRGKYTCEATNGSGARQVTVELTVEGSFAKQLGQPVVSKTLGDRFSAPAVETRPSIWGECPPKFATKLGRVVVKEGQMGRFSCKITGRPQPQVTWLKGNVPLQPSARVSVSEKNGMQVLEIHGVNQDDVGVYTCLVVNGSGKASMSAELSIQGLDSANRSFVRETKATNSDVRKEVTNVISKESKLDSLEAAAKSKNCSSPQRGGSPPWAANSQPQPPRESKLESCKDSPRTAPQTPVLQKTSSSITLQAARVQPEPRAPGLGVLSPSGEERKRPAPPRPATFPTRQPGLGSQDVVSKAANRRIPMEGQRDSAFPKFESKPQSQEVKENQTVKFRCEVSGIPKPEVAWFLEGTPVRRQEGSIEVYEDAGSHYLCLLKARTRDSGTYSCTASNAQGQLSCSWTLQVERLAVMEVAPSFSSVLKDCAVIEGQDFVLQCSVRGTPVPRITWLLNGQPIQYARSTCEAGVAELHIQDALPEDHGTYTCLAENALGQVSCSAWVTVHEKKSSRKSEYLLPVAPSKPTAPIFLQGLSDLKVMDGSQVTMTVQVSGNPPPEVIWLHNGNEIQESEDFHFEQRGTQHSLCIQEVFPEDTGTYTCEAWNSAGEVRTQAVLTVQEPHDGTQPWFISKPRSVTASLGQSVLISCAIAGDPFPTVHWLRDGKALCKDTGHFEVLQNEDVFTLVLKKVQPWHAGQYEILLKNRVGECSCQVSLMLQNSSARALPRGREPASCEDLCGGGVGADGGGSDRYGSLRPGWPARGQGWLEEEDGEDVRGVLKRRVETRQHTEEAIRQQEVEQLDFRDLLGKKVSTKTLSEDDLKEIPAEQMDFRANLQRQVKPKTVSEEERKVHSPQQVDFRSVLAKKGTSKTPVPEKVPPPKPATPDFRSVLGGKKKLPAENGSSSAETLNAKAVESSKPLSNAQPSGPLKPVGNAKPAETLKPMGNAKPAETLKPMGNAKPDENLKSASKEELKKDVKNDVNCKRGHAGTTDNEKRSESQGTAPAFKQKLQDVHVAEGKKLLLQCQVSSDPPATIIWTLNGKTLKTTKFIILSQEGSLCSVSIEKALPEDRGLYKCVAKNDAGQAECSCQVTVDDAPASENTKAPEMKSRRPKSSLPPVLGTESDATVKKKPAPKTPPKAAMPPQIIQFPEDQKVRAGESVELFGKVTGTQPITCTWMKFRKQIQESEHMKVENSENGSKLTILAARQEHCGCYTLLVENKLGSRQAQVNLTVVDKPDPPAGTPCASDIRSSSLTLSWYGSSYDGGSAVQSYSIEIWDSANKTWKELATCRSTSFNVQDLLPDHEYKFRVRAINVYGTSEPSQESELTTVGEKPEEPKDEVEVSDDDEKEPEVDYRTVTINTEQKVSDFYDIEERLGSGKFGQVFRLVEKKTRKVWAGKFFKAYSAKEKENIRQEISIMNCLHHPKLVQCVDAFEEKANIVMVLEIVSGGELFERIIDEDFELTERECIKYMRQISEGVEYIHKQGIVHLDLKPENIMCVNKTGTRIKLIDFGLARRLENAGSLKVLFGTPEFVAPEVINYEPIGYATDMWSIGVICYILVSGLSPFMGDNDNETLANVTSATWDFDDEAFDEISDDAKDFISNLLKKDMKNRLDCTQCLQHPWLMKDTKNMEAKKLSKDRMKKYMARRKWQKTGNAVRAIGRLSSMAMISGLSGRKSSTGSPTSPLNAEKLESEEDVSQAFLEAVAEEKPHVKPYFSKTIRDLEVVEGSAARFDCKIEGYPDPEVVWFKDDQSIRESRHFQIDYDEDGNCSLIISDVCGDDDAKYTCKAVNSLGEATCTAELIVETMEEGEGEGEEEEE
STK3 (human), sequence (Q13188 whole entry, looked up): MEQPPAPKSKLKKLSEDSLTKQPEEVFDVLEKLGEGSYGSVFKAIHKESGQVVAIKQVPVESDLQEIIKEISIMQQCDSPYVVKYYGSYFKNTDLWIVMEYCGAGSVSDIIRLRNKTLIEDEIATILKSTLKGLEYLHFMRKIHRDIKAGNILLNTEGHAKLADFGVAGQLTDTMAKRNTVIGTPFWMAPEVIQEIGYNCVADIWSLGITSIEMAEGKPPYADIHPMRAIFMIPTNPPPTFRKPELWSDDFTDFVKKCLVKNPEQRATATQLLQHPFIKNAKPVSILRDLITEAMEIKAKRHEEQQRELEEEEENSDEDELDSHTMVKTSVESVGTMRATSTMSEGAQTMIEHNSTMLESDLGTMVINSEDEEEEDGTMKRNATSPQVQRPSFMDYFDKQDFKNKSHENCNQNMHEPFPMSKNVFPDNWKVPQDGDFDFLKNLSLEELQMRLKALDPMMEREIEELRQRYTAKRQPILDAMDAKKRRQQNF
NEK6 (human), sequence (Q9HC98 whole entry, looked up): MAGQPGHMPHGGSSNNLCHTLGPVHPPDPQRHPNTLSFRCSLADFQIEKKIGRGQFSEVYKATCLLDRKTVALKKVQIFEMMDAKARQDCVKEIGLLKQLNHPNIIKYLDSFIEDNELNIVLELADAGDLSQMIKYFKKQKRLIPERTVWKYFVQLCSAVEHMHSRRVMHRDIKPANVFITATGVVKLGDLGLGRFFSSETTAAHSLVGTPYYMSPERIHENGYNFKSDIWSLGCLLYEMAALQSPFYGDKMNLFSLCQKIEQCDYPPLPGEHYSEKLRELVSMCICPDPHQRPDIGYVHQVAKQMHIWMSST
IKBKB (human), sequence (O14920 whole entry, looked up): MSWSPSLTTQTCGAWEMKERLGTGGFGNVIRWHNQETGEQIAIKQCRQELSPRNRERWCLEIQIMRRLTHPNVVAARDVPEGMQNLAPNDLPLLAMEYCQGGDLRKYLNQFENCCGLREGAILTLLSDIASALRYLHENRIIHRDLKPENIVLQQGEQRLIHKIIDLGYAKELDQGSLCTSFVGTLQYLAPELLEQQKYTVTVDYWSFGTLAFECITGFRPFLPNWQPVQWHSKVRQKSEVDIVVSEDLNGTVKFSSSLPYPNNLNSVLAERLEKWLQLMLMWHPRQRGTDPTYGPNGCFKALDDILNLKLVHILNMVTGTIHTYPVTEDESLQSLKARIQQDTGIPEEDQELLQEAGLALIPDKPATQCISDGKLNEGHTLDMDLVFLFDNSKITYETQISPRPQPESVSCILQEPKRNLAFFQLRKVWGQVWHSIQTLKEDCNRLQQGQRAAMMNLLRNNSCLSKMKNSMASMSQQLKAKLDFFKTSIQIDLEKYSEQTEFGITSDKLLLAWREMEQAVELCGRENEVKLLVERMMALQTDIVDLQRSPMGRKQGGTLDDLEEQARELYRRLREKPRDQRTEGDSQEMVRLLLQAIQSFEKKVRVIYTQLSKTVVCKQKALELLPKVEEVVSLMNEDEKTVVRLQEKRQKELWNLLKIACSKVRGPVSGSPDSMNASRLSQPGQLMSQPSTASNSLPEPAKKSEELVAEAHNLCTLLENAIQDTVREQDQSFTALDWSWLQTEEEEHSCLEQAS
CHEK1 (human), sequence (O14757 whole entry, looked up): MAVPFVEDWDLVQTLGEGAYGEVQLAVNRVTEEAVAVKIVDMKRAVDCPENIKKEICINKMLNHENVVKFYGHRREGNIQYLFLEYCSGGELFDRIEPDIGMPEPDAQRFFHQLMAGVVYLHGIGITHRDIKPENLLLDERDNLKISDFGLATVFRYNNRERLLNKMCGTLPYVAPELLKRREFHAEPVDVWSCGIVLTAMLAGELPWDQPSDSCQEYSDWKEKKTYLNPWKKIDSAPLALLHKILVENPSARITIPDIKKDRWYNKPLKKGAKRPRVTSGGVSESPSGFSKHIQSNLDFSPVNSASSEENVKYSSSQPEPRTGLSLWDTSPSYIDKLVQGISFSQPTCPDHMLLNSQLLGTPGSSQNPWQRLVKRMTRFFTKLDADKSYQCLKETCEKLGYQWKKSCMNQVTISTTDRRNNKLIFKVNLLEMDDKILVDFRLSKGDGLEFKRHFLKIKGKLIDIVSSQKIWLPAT

Molecule `Cc1nc(-c2ccc(OCC(C)C)c(C#N)c2)sc1C(=O)O` has a residual activity (EPHB4 (human); compound 1.0 µM) of 93%, a residual activity (EPHB4 (human); compound 10.0 µM) of 79% and a residual activity (IKBKB (human); compound 1.0 µM) of 100%. For the same molecule, the residual activity (IKBKB (human); compound 10.0 µM) was 99%, the residual activity (YES1 (human)) was 117% and the residual activity (STK3 (human); compound 1.0 µM) was 73%. For the same molecule, the residual activity (STK3 (human); compound 10.0 µM) was 75%, the residual activity (MYLK (human); compound 1.0 µM) was 101% and the residual activity (MYLK (human); compound 10.0 µM) was 79%. For the same molecule, the residual activity (MAP2K1 (human)) was 85%, the residual activity (MKNK2 (human); compound 1.0 µM) was 105% and the residual activity (MKNK2 (human); compound 10.0 µM) was 91%. For the same molecule, the residual activity (PAK6 (human); compound 1.0 µM) was 97%, the residual activity (PAK6 (human); compound 10.0 µM) was 107% and the residual activity (EPHB1 (human); compound 1.0 µM) was 118%. For the same molecule, the residual activity (EPHB1 (human); compound 10.0 µM) was 103%, the residual activity (MAP3K9 (human); compound 1.0 µM) was 69% and the residual activity (MAP3K9 (human); compound 10.0 µM) was 47%. For the same molecule, the residual activity (PIM1 (human); compound 1.0 µM) was 83%, the residual activity (PIM1 (human); compound 10.0 µM) was 66% and the residual activity (CSNK2A1 (human); compound 1.0 µM) was 87%. It also gave a residual activity (CSNK2A1 (human); compound 10.0 µM) of 71%, a residual activity ([1]; compound 1.0 µM) of 99% and a residual activity ([1]; compound 10.0 µM) of 99%. It also gave a residual activity (NEK6 (human); compound 1.0 µM) of 100%, a residual activity (NEK6 (human); compound 10.0 µM) of 99% and a residual activity (PIM3 (human); compound 1.0 µM) of 66%. For the same molecule, the residual activity (PIM3 (human); compound 10.0 µM) was 19%, the residual activity (EEF2K (human); compound 1.0 µM) was 102% and the residual activity (EEF2K (human); compound 10.0 µM) was 95%. It also gave a residual activity (GCK (human); compound 1.0 µM) of 85%, a residual activity (GCK (human); compound 10.0 µM) of 86% and a residual activity (SRPK1 (human); compound 1.0 µM) of 99%. For the same molecule, the residual activity (SRPK1 (human); compound 10.0 µM) was 89%, the residual activity (INSRR (human); compound 1.0 µM) was 66% and the residual activity (INSRR (human); compound 10.0 µM) was 68%. The residual activity (DAPK1 (human); compound 1.0 µM) was 85%, the residual activity (DAPK1 (human); compound 10.0 µM) was 60% and the residual activity (MAP2K2 (human); compound 1.0 µM) was 77%. For the same molecule, the residual activity (MAP2K2 (human); compound 10.0 µM) was 73%, the residual activity (TTK (human); compound 1.0 µM) was 89% and the residual activity (TTK (human); compound 10.0 µM) was 87%. It also gave a residual activity (BTK (human); compound 1.0 µM) of 103%, a residual activity (BTK (human); compound 10.0 µM) of 101% and a residual activity (PIM2 (human); compound 1.0 µM) of 110%. It also gave a residual activity (PIM2 (human); compound 10.0 µM) of 88%, a residual activity ([2]; compound 1.0 µM) of 95% and a residual activity ([2]; compound 10.0 µM) of 90%. The residual activity (RPS6KA5 KD1 KD2 (human); compound 1.0 µM) was 94%, the residual activity (RPS6KA5 KD1 KD2 (human); compound 10.0 µM) was 102% and the residual activity (CDK2 CCNA2 (human); compound 1.0 µM) was 106%. The residual activity (CDK2 CCNA2 (human); compound 10.0 µM) was 106%, the residual activity (MARK4 (human); compound 1.0 µM) was 96% and the residual activity (MARK4 (human); compound 10.0 µM) was 85%. It also gave a residual activity (CHEK1 (human); compound 1.0 µM) of 85%, a residual activity (CHEK1 (human); compound 10.0 µM) of 86% and a residual activity (EPHA4 (human)) of 107%. It also gave a residual activity (MAPK9 (human); compound 1.0 µM) of 90%, a residual activity (MAPK9 (human); compound 10.0 µM) of 86% and a residual activity (TBK1 (human)) of 127%. It also gave a residual activity (MARK3 (human); compound 1.0 µM) of 91%, a residual activity (MARK3 (human); compound 10.0 µM) of 87% and a residual activity (MAP3K5 (human)) of 127%. For the same molecule, the residual activity (MAPKAPK2 (human)) was 44% and the residual activity (PKN2 (human)) was 120%.
